Among the data in PubChem BioAssay (NCI) are TGI values, retold here.

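Test compounds were applied to cells in 96-well plates for 48 hours at 5 doses. TGI marks complete inhibition of growth.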

Some test systems named below: BT-549 breast; COLO 205 colon; DU-145 prostate; HS 578T breast; HT29 colon; IGROV1 ovarian; LOX IMVI melanoma; MCF7 breast; MDA-MB-435; NCI-H226 lung; NCI/ADR-RES ovarian; OVCAR-8 ovarian; RXF 393 renal; SF-295 CNS; SK-OV-3 ovarian; SN12C renal; SNB-19 CNS; SNB-75 CNS; SR leukemia; T-47D breast.
Assay in all cases: NCI anticancer screen, dose series, 48 h

For the molecule `O=[N+]([O-])c1ccc(N=Nc2c(O)ccc3ccccc23)c([N+](=O)[O-])c1`, the TGI with BT-549 breast, with COLO 205 colon, in the assay with DU-145 prostate, with HS 578T breast, in the assay with HT29 colon and in the assay with IGROV1 ovarian was more than 100 µM throughout. The TGI in the assay on LOX IMVI melanoma, with MCF7 breast, in the assay with MDA-MB-435, in the assay with NCI-H226 lung, in the assay on NCI/ADR-RES ovarian and in the assay on OVCAR-8 ovarian was more than 100 µM throughout. Also, the TGI with RXF 393 renal, in the assay with SF-295 CNS, with SK-OV-3 ovarian, in the assay with SN12C renal, in the assay with SNB-19 CNS and in the assay with SNB-75 CNS was more than 100 µM throughout. Further, the TGI in the assay on SR leukemia and with T-47D breast was more than 100 µM each time.

As to `COc1cc(S(=O)(=O)Nc2nc(-c3ccc(N4C(=O)/C(=C/C=C/c5ccccc5)N=C4c4ccccc4)cc3)cs2)ccc1Cl`, the TGI in the assay on BT-549 breast was 94 µM; in the assay with COLO 205 colon, more than 100 µM; in the assay on DU-145 prostate it was more than 100 µM; in the assay on HS 578T breast, more than 100 µM; in the assay with HT29 colon it was more than 100 µM; with IGROV1 ovarian, more than 100 µM. For the same molecule, the TGI in the assay on LOX IMVI melanoma, with MCF7 breast, in the assay with MDA-MB-435, in the assay on NCI-H226 lung, in the assay with NCI/ADR-RES ovarian and with OVCAR-8 ovarian was more than 100 µM each time. Further, the TGI in the assay on RXF 393 renal, in the assay on SF-295 CNS, in the assay on SK-OV-3 ovarian, in the assay with SN12C renal, with SNB-19 CNS and in the assay on SNB-75 CNS was more than 100 µM in each case. In addition, the TGI in the assay with SR leukemia and with T-47D breast was more than 100 µM in each case.

In the case of `Nc1nc2c(c(=O)[nH]1)C(c1ccccc1)CC(=O)N2` (configuration not stated), the TGI in the assay with BT-549 breast, in the assay on COLO 205 colon, with DU-145 prostate, with HS 578T breast, in the assay with HT29 colon and in the assay on IGROV1 ovarian was more than 100 µM throughout. Moreover, the TGI in the assay with LOX IMVI melanoma, in the assay with MCF7 breast, in the assay with MDA-MB-435, in the assay with NCI-H226 lung, with NCI/ADR-RES ovarian and in the assay with OVCAR-8 ovarian was more than 100 µM each time. The TGI in the assay with SF-295 CNS, in the assay on SK-OV-3 ovarian, in the assay on SN12C renal, in the assay with SNB-19 CNS, with SNB-75 CNS and with SR leukemia was more than 100 µM in each case. Besides, the TGI in the assay on T-47D breast is more than 100 µM.

Take `Cc1cccc2c1C(=O)[C@](C)([C@]1(C)Nc3cccc(C)c3C1=O)N2`: the TGI is 62.5 µM in the assay on BT-549 breast; 44.6 µM with COLO 205 colon; more than 100 µM in the assay with DU-145 prostate; 67.8 µM in the assay with HS 578T breast; more than 100 µM with HT29 colon; more than 100 µM with IGROV1 ovarian. For the same molecule, the TGI was more than 100 µM in the assay with LOX IMVI melanoma; more than 100 µM with MCF7 breast; 35.7 µM in the assay on MDA-MB-435; more than 100 µM with NCI-H226 lung; more than 100 µM in the assay with NCI/ADR-RES ovarian; 72.8 µM in the assay on OVCAR-8 ovarian. For the same molecule, the TGI in the assay with RXF 393 renal was more than 100 µM; in the assay with SF-295 CNS, 68.9 µM; with SK-OV-3 ovarian, 76.6 µM; with SN12C renal it was more than 100 µM; with SNB-19 CNS it was more than 100 µM; with SNB-75 CNS it was 41.2 µM. The TGI in the assay on SR leukemia was found to be 93.5 µM; in the assay on T-47D breast, 87.9 µM.

As for `CC[C@@H]1C(=O)OC[C@@H]1Cc1cncn1C`, the TGI in the assay with BT-549 breast, with COLO 205 colon, with DU-145 prostate, in the assay on HS 578T breast, in the assay with HT29 colon and with IGROV1 ovarian was more than 100 µM in each case. Also, the TGI with LOX IMVI melanoma, in the assay on MCF7 breast, with MDA-MB-435, in the assay on NCI-H226 lung, with NCI/ADR-RES ovarian and with OVCAR-8 ovarian was more than 100 µM in each case. In addition, the TGI with RXF 393 renal, with SF-295 CNS, with SK-OV-3 ovarian, with SN12C renal, in the assay on SNB-19 CNS and in the assay on SNB-75 CNS was more than 100 µM in each case. Further, the TGI in the assay on SR leukemia and in the assay with T-47D breast was more than 100 µM in each case.

As for `N#Cc1c(=O)c2ccccc2n2c1[nH]c1ccccc12`, the TGI with BT-549 breast, with COLO 205 colon, with DU-145 prostate, in the assay on HS 578T breast, in the assay on HT29 colon and in the assay on IGROV1 ovarian was more than 100 µM each time. In addition, the TGI with LOX IMVI melanoma is more than 100 µM; in the assay on MCF7 breast, more than 100 µM; in the assay with MDA-MB-435, more than 100 µM; with NCI-H226 lung, more than 100 µM; in the assay on NCI/ADR-RES ovarian, 70.4 µM; in the assay on OVCAR-8 ovarian, more than 100 µM. Besides, the TGI in the assay with RXF 393 renal was more than 100 µM; with SF-295 CNS it was more than 100 µM; in the assay with SN12C renal it was more than 100 µM; in the assay with SNB-19 CNS, more than 100 µM; in the assay with SNB-75 CNS, more than 100 µM; with SR leukemia, 43.8 µM. In addition, the TGI in the assay on T-47D breast amounted to 79.7 µM.

On to `COc1ccc(-c2c3c(cc4cc5c(cc24)OCO5)C(=O)OC3)cc1OC`, for which the TGI was 22.3 µM with BT-549 breast; 11.4 µM in the assay with COLO 205 colon; more than 100 µM with DU-145 prostate; 68.8 µM with HS 578T breast; 6.55 µM in the assay on HT29 colon; more than 100 µM with IGROV1 ovarian. For the same molecule, the TGI turned out to be 0.0663 µM in the assay on LOX IMVI melanoma; 31.4 µM in the assay on MCF7 breast; 11.5 µM in the assay with MDA-MB-435; 12.4 µM with NCI-H226 lung; 22.4 µM with NCI/ADR-RES ovarian; 35.8 µM with RXF 393 renal. Besides, the TGI was 0.922 µM in the assay with SF-295 CNS; more than 62.1 µM with SK-OV-3 ovarian; more than 53.1 µM in the assay with SN12C renal; 52 µM with SNB-19 CNS; 44.7 µM with SNB-75 CNS; 1.7 µM in the assay with SR leukemia. In addition, the TGI in the assay on T-47D breast was determined as 3.46 µM.

Turning to `CN(C)CCCn1c(Cc2ccc(Cl)cc2)nc2cc(C(F)(F)F)ccc21`, the TGI stood at 32.4 µM with BT-549 breast; 29.3 µM in the assay on COLO 205 colon; 27.2 µM in the assay with DU-145 prostate; 33.6 µM in the assay with HS 578T breast; 29.8 µM in the assay on HT29 colon; 27.3 µM with IGROV1 ovarian. The TGI with LOX IMVI melanoma was 29.7 µM; with MCF7 breast, 27.6 µM; in the assay with MDA-MB-435 it was 26.6 µM; with NCI-H226 lung, 36.4 µM; with NCI/ADR-RES ovarian it was 33.6 µM; in the assay with OVCAR-8 ovarian it was 33.4 µM. For the same molecule, the TGI in the assay on RXF 393 renal is 22.7 µM; in the assay with SF-295 CNS, 31.4 µM; in the assay on SK-OV-3 ovarian, 28.2 µM; in the assay on SN12C renal it was 29.4 µM; with SNB-19 CNS, 30.8 µM; in the assay on SR leukemia, more than 100 µM. This molecule registered a TGI in the assay on T-47D breast of 27.2 µM.

For `O=c1c2cc(-c3ccccc3)sc2nc2n1N=C(c1ccc(Cl)cc1)CS2`, the TGI in the assay on BT-549 breast, in the assay with COLO 205 colon, in the assay with DU-145 prostate, in the assay on HS 578T breast, in the assay on HT29 colon and with IGROV1 ovarian was more than 100 µM in each case. The TGI in the assay with LOX IMVI melanoma, in the assay with MCF7 breast, in the assay with MDA-MB-435, with NCI-H226 lung, with NCI/ADR-RES ovarian and with OVCAR-8 ovarian was more than 100 µM each time. For the same molecule, the TGI in the assay with RXF 393 renal, in the assay on SF-295 CNS, with SK-OV-3 ovarian, in the assay with SN12C renal, with SNB-75 CNS and in the assay on SR leukemia was more than 100 µM throughout. The same molecule showed a TGI with T-47D breast of more than 100 µM.

`CC(O)c1cc2c(s1)C(=O)c1ccsc1C2=O` (configuration not stated): the TGI stood at 0.23 µM with BT-549 breast; 3.23 µM in the assay on COLO 205 colon; 0.0947 µM in the assay with DU-145 prostate; 0.566 µM in the assay with HS 578T breast; 1.25 µM in the assay on IGROV1 ovarian; 0.32 µM with MCF7 breast. Further, the TGI was found to be 0.026 µM in the assay on MDA-MB-435; 1.32 µM with NCI-H226 lung; 0.743 µM in the assay with NCI/ADR-RES ovarian; 1.01 µM in the assay with OVCAR-8 ovarian; 0.56 µM with RXF 393 renal; 0.18 µM with SF-295 CNS. Besides, the TGI in the assay with SK-OV-3 ovarian is 5.46 µM; in the assay on SN12C renal it was 0.238 µM; in the assay on SNB-19 CNS, 0.553 µM; in the assay with SNB-75 CNS, 0.166 µM; in the assay with SR leukemia, 0.392 µM; in the assay on T-47D breast, 1.42 µM.

As for `CSC1=Nc2ccccc2-c2nc3ccccc3cc2C1`, the TGI with BT-549 breast, in the assay with COLO 205 colon, in the assay with DU-145 prostate, in the assay on HS 578T breast, in the assay with HT29 colon and in the assay on IGROV1 ovarian was more than 100 µM throughout. Moreover, the TGI with LOX IMVI melanoma, with MCF7 breast, in the assay with MDA-MB-435, with NCI-H226 lung, in the assay on NCI/ADR-RES ovarian and with OVCAR-8 ovarian was more than 100 µM throughout. Besides, the TGI in the assay on RXF 393 renal, in the assay with SF-295 CNS, with SK-OV-3 ovarian, in the assay on SN12C renal, with SNB-19 CNS and in the assay on SR leukemia was more than 100 µM each time. This molecule also returned a TGI in the assay with T-47D breast of more than 100 µM.
